In US11634426B2, “Selective estrogen receptor degraders” (Eli Lilly and Company, priority 2018, dated 2023):

Molecular target: ERα receptor (Homo sapiens (Human), UniProt P03372)
Experiment: PRα induction assay in MCF7 cells (ERα agonism)
Assay type: cell-based
Protocol: The purpose of the following PRα induction assay is to determine whether a test compound has agonistic activity against ERα receptor (an agonist would be expected to activate the receptor).
Culture MCF7 (purchased from ATCC HTB-22) in DMEM media supplemented with 10% FBS, 0.01 mg/mL human insulin 1 and 1% penicillin/streptomycin antibiotics and plate the cells (prior to becoming 70% confluent) in 384-well flat-bottom plates at a density of 4,000 cells per well in 20 μL volume in DMEM phenol red free media containing 10% FBS (charcoal stripped). Incubate the cells overnight in a cell culture incubator (5% CO2, 95% relative humidity at 37° C.) and allow the cells to attach to the plate. The following day, dose the cells with test compound. Use an Echo 555 acoustic dispenser to prepare compound serial dilutions (1:3) in a range from 6 μM to 0.0003 μM. Dose the cells with the addition of the test compound (5 μL) from the serial dilution plate to the cell plate producing a final DMSO concentration of 0.2% with a final concentration of the test compound dose range between 2 and 0.0001 μM. For the maximum point use media containing 0.2% of DMSO and for the minimum point, use fulvestrant diluted at […] final concentrations in the growth media containing 0.2% DMSO. After dosing with the test compound, incubate the cell plates at 37° C. and 5% CO2 for 24 hours. Fix the cells by adding 14% para-formaldehyde (10 μL) for 30 minutes at room temperature. Wash cells once with PBS (20 μL) and incubate with PBS (20 μL) containing 0.5% (v/v) TWEEN® 20 for 1 hour. Wash cells twice with PBS (20 μL) containing 0.05% TWEEN® 20 and block with 3% BSA in PBS containing 0.05% TWEEN® 20 and 0.1% TRITON™ X-100 (20 μL/well) for 1 hour at room temperature. […]
The following day, wash cells with PBS 0.05% TWEEN® 20 (2×20 μL) and incubate with secondary antibody (20 μL/well) (1:1000 dilution, Goat anti-rabbit IgM ALEXA FLUOR™ 488) in PBS 1% BSA for 105 minutes at room temperature. […] Scan plates with ACUMEN EXPLORER™ [Laser-scanning fluorescence microplate cytometer manufactured by TTP LABTECH LTD] to measure PRα. […]

Sequence of ERα receptor (P03372 whole entry): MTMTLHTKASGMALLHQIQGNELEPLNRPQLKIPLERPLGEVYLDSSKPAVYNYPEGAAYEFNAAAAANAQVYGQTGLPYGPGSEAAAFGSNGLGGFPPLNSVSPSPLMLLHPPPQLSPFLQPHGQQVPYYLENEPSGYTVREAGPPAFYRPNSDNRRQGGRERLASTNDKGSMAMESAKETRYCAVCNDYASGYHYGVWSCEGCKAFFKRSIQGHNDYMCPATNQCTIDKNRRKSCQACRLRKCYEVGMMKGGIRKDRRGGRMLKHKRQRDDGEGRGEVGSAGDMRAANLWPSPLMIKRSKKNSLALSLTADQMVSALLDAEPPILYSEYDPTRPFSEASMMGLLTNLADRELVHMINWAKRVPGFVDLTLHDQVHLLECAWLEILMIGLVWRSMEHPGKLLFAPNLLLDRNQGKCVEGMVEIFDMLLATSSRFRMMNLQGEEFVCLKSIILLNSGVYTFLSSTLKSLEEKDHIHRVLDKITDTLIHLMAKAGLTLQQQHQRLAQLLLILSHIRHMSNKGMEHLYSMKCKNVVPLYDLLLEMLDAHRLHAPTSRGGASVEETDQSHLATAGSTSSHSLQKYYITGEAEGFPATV

agonistic activity (PRα induction) | Compound
no significant agonistic activity | Oc1ccc2c3c(cnc2c1)-c1ccc(C(F)(F)F)cc1OC3c1ccc(OCCN2CC(CF)C2)cc1 (single isomer, unassigned; isomer 2) [Example 1B, 5-(4-{2-[3-(Fluoromethyl)azetidin-1-yl]ethoxy}phenyl)-8-(trifluoromethyl)-5H-[1]benzopyrano[4,3-c]quinolin-2-ol, Isomer 2]
no significant agonistic activity | Oc1ccc2c3c(cnc2c1)-c1ccc(C(F)(F)F)cc1OC3c1ccc(OCCN2CC(CF)C2)cc1 (single isomer, unassigned; isomer 1) [Example 1A, 5-(4-{2-[3-(Fluoromethyl)azetidin-1-yl]ethoxy}phenyl)-8-(trifluoromethyl)-5H-[1]benzopyrano[4,3-c]quinolin-2-ol, Isomer 1]
no significant agonistic activity | Oc1ccc2c3c(cnc2c1)-c1ccc(C(F)(F)F)cc1OC3c1ccc(OCCN2CC(CF)C2)cc1 (racemic) [Example 1, Racemic 5-(4-{2-[3-(Fluoromethyl)azetidin-1-yl]ethoxy}phenyl)-8-(trifluoromethyl)-5H-[1]benzopyrano[4,3-c]quinolin-2-ol]
